In publication PMC8950700 (Pharmaceuticals, 2022):
Read-outs that look alike come from different tables or passages of the source.

Key:
H1N1 virus [1] = format: cell-based
H5N1V116A virus [2] = format: cell-based, influenza A virus; settings: read-out: IC50 (50% Inhibitory Concentration) H5N1V116A
[3] = tested on: A/chicken/Egypt/B13825A/2017 (H5N1wild); assay: microbe, parasite or virus in culture; format: cell-based; settings: Influenza A virus
H5N1wild virus [4] = settings: mouse, in vivo
[5] = mouse, in vivo
H5N1wild virus [6] = format: cell-based
[7] = tested on: A/California/04/2009 (H1N1); assay: microbe, parasite or virus in culture; format: cell-based; settings: Influenza A virus
in vitro = settings: dog
H5N1N295S virus [8] = format: cell-based, influenza A virus; settings: read-out: IC50 (50% Inhibitory Concentration) H5N1N295S
H1N1 virus [9] = settings: mouse, in vivo
H5N1N295S virus [10] = format: cell-based, influenza A virus
H5N1V116A virus [11] = format: cell-based, influenza A virus
H5N1N295S virus [12] = format: cell-based, influenza A virus; remark: listed apart in the source
H5N1wild virus [13] = assay: microbe, parasite or virus in culture; format: cell-based; settings: Influenza A virus, read-out: viral inhibition in the count of plaques, H5N1wild
H5N1V116A virus [14] = format: cell-based, influenza A virus; remark: listed apart in the source
[15] = read-out: IC50 (50% Inhibitory Concentration) H5N1wild
[16] = H1N1, read-out: IC50 (50% Inhibitory Concentration) H1N1
[17] = H1N1, read-out: IC50 H1N1 (Figure 5)
[18] = read-out: IC50 H5N1wild (Figure 5)

SMILES | inhibition in the viral HA titer, H1N1 (H1N1 virus [1]) | IC50 (H5N1V116A virus [2]) | IC50 [3, 15] | external observations of mice [5] | ALT ([5]; 20 mg/kg) | AST ([5]; 20 mg/kg) | Creatinine ([5]; 20 mg/kg) | Urea ([5]; 20 mg/kg) | ALT ([5]; 40 mg/kg) | AST ([5]; 40 mg/kg) | Creatinine ([5]; 40 mg/kg) | Urea ([5]; 40 mg/kg) | ALT ([5]; 80 mg/kg) | inhibition in the viral HA titer, H5N1wild (H5N1wild virus [6]) | IC50 [7, 16] | IC50 [7, 17] | CC50 at 72 h (in vitro) | IC50 (H5N1N295S virus [8]) | inhibition in the viral HA titer, H5N1N295S (H5N1N295S virus [10]) | inhibition in the viral HA titer, H5N1V116A (H5N1V116A virus [11]) | also measured
CC(=O)O[C@@H]1[C@@H](OC(C)=O)[C@H](OCc2cn(Cc3nc4ccccc4[nH]3)nn2)OC[C@H]1OC(C)=O [Compound 9a, (2R,3R,4S,5R,)-2-((1-((1H-Benzo[d]imidazol-2-yl)methyl)-1H-1,2,3-triazol-4-yl)methoxy)tetrahydro-2H-pyran-3,4,5-triyl Triacetate] | more than 80% | 5.62 µM | 5.8 µM | normal in external observations | 9.64 ± 3.64 | 20 ± 6.957 | 0.13 ± 0.04 | 7.32 ± 2.09 | 10.64 ± 1.38 | 13.77 ± 1.298 | 0.13 ± 0.04 | 7.32 ± 0.48 | 8.67 ± 2.16 | not more than 50% | 1.65 µM | 1.65 µM | 795 µM | 5.62 µM | not more than 50% | more than 80% | virus shedding in the nasal wash (EID50), H5N1wild (H5N1wild virus [4]): reduced the viral shedding; AST ([5]; 80 mg/kg): 15.33 ± 0.9686; Creatinine ([5]; 80 mg/kg): 0.17 ± 0.04; Urea ([5]; 80 mg/kg): 4.64 ± 1.12; survival after infection with H1N1 (H1N1 virus [9]): 60%; viral titer in lung tissue (TCID50), H1N1 (H1N1 virus [9]): significantly reduced the propagation; virus shedding in the nasal wash (EID50), H1N1 (H1N1 virus [9]): significantly reduced the viral titer
CCOC(=O)C1=C[C@H](N)C(NC(C)=O)[C@H](OC(CC)CC)C1 (stereo partly drawn) [oseltamivir, reference compound] | not more than 80% | 309 µM | 10.1 µM | – | – | – | – | – | – | – | – | – | – | ≤ 20% | 1.65 µM | – | 581 µM | 25.8 µM | ≤ 20% | not more than 80% | IC50 [3, 18]: 10.1 µM; survival after infection with H5N1wild (H5N1wild virus [4]): 60%; viral titer in lung tissue (TCID50), H5N1wild (H5N1wild virus [4]): reduced the propagation; viral inhibition in the count of plaques, H5N1N295S (H5N1N295S virus [12]): ~8.5%; inhibition at 5 µM (H5N1wild virus [13]): ~90%; mortality after infection with H1N1 (H1N1 virus [9]): 60%; viral titer in lung tissue (TCID50), H1N1 (H1N1 virus [9]): did not affect; viral inhibition in the count of plaques, H5N1V116A (H5N1V116A virus [14]): ~40%
CC(=O)OC[C@H]1O[C@@H](OCc2cn(Cc3nc4ccccc4o3)nn2)[C@H](OC(C)=O)[C@@H](OC(C)=O)[C@@H]1OC(C)=O [Compound 7b, (2R,3R,4S,5R,6R)-2-(Acetoxymethyl)-6-((1-(benzo[d]oxazol-2-ylmethyl)-1H-1,2,3-triazol-4-yl)methoxy)tetrahydro-2H-pyran-3,4,5-triyl Triacetate] | – | 22.6 µM | 37 µM | – | – | – | – | – | – | – | – | – | – | – | 1.68 µM | 1.68 µM | 1050 µM | 15.5 µM | – | – | –
CC(=O)OC[C@H]1O[C@@H](OCc2cn(Cc3nc4ccccc4s3)nn2)[C@H](OC(C)=O)[C@@H](OC(C)=O)[C@H]1OC(C)=O [Compound 8c, (2R,3S,4S,5R,6R)-2-(Acetoxymethyl)-6-((1-(benzo[d]thiazol-2-ylmethyl)-1H-1,2,3-triazol-4-yl)methoxy)tetrahydro-2H-pyran-3,4,5-triyl Triacetate] | – | 68.6 µM | 1.65 µM | – | – | – | – | – | – | – | – | – | – | – | 1.64 µM | 1.64 µM | 312 µM | 64.7 µM | – | – | –
CC(=O)O[C@@H]1[C@@H](OC(C)=O)[C@H](OCc2cn(Cc3nc4ccccc4o3)nn2)OC[C@H]1OC(C)=O [Compound 9b, (2R,3R,4S,5R)-2-((1-(Benzo[d]oxazol-2-ylmethyl)-1H-1,2,3-triazol-4-yl)methoxy)tetrahydro-2H-pyran-3,4,5-triyl Triacetate] | – | 56.7 µM | 1.67 µM | – | – | – | – | – | – | – | – | – | – | – | 1.68 µM | – | 478 µM | 12.3 µM | – | – | –
CC(=O)OC[C@H]1O[C@@H](OCc2cn(Cc3nc4ccccc4[nH]3)nn2)[C@H](OC(C)=O)[C@@H](OC(C)=O)[C@@H]1OC(C)=O [Compound 7a, (2R,3R,4S,5R,6R)-2-((1-((1H-Benzo[d]imidazol-2-yl)methyl)-1H-1,2,3-triazol-4-yl)methoxy)-6-(acetoxymethyl)tetrahydro-2H-pyran-3,4,5-triyl Triacetate] | – | 48.3 µM | 325 µM | – | – | – | – | – | – | – | – | – | – | – | 84.9 µM | 84.9 µM | 685 µM | 283 µM | – | – | IC50 [3, 18]: 325 µM
CC(=O)O[C@@H]1[C@@H](OC(C)=O)[C@H](OCc2cn(Cc3nc4ccccc4s3)nn2)OC[C@H]1OC(C)=O [Compound 9c, (2R,3R,4S,5R)-2-((1-(Benzo[d]thiazol-2-ylmethyl)-1H-1,2,3-triazol-4-yl)methoxy)tetrahydro-2H-pyran-3,4,5-triyl Triacetate] | more than 80% | 1.65 µM | 2.25 µM | normal in external observations | 7.60 ± 1.56 | 11.93 ± 3.765 | 0.14 ± 0.05 | 7.90 ± 3.13 | 7.80 ± 2.07 | 9.689 ± 2.922 | 0.14 ± 0.05 | 3.64 ± 1.49 | 5.54 ± 1.22 | more than 80% | 1.64 µM | 1.64 µM | 302 µM | 55.1 µM | not more than 50% | more than 80% | survival after infection with H5N1wild (H5N1wild virus [4]): 80%; viral titer in lung tissue (TCID50), H5N1wild (H5N1wild virus [4]): reduced the propagation; virus shedding in the nasal wash (EID50), H5N1wild (H5N1wild virus [4]): reduced the viral shedding; AST ([5]; 80 mg/kg): 12.33 ± 3.169; Creatinine ([5]; 80 mg/kg): 0.13 ± 0.04; Urea ([5]; 80 mg/kg): 4.88 ± 2.13; survival after infection with H1N1 (H1N1 virus [9]): full protection from mortality; viral titer in lung tissue (TCID50), H1N1 (H1N1 virus [9]): reduced the propagation
CC(=O)OC[C@H]1O[C@@H](OCc2cn(Cc3nc4ccccc4o3)nn2)[C@H](OC(C)=O)[C@@H](OC(C)=O)[C@H]1OC(C)=O [Compound 8b, (2R,3S,4S,5R,6R)-2-(Acetoxymethyl)-6-((1-(benzo[d]oxazol-2-ylmethyl)-1H-1,2,3-triazol-4-yl)methoxy)tetrahydro-2H-pyran-3,4,5-triyl Triacetate] | more than 80% | 16.2 µM | 8.63 µM | normal in external observations | 10.66 ± 4.32 | 15 ± 3.41 | 0.17 ± 0.04 | 9.00 ± 3.81 | 8.20 ± 2.62 | 15.77 ± 0.9944 | 0.13 ± 0.04 | 6.66 ± 1.54 | 6.72 ± 1.47 | more than 80% | 1.7 µM | 1.7 µM | 788 µM | 19.6 µM | not more than 60% | more than 80% | survival after infection with H5N1wild (H5N1wild virus [4]): 60%; AST ([5]; 80 mg/kg): 16 ± 5.099; Creatinine ([5]; 80 mg/kg): 0.10 ± 0.02; Urea ([5]; 80 mg/kg): 7.32 ± 3.90; survival after infection with H1N1 (H1N1 virus [9]): 60%
CC(=O)OC[C@H]1O[C@@H](OCc2cn(Cc3nc4ccccc4s3)nn2)[C@H](OC(C)=O)[C@@H](OC(C)=O)[C@@H]1OC(C)=O [Compound 7c, (2R,3R,4S,5R,6R)-2-(Acetoxymethyl)-6-((1-(benzo[d]thiazol-2-ylmethyl)-1H-1,2,3-triazol-4-yl)methoxy)tetrahydro-2H-pyran-3,4,5-triyl Triacetate] | – | 11.3 µM | 1.62 µM | – | – | – | – | – | – | – | – | – | – | – | 1.65 µM | 1.66 µM | 764 µM | 37.4 µM | – | – | –
CC(=O)OC[C@H]1O[C@@H](OCc2cn(Cc3nc4ccccc4[nH]3)nn2)[C@H](OC(C)=O)[C@@H](OC(C)=O)[C@H]1OC(C)=O [Compound 8a, (2R,3R,4S,5S,6R)-2-((1-((1H-Benzo[d]imidazol-2-yl)methyl)-1H-1,2,3-triazol-4-yl)methoxy)-6-(acetoxymethyl)tetrahydro-2H-pyran-3,4,5-triyl Triacetate] | – | 924 µM | 26.3 µM | – | – | – | – | – | – | – | – | – | – | – | 1.61 µM | – | 503 µM | 22.8 µM | – | – | –
